Experimental data as given in PubChem BioAssay AID1963843 (Molecular Pharmacology Branch, DTP, NCI, 2024).

Test system: 616215-338-R-J1-PDC complex spheroid viability
Test: Anticancer human tumor 616215-338-R-J1-PDC patient-derived colon adenocarcinoma cell line growth inhibition [POLQ]
Details: for IC50: curve of first compound; for viability, T/C: stronger effect = lower value
Method in brief: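 Complex spheroid viability model combining PDC tumour cells with endothelial (HUVEC) and MSC stromal cells. Novobiocin, ART-558 or RP6685 were tested singly and in combination with standard and investigational anticancer drugs. Each was titrated in half-log steps from near clinical Cmax, or from 10 microM where Cmax was unknown.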

[1] = second compound 0.0316 µM, first compound 0.0316 µM
[2] = second compound 0.0316 µM, first compound 0.1 µM
[3] = second compound 0.0316 µM, first compound 0.316 µM
[4] = second compound 0.0316 µM, first compound 1 µM
[5] = second compound 0.0316 µM, first compound 3.16 µM
[6] = second compound 0.0316 µM, first compound 10 µM
[7] = second compound 0.1 µM, first compound 0.0316 µM
[8] = second compound 0.1 µM, first compound 0.1 µM
[9] = second compound 0.1 µM, first compound 0.316 µM
[10] = second compound 0.1 µM, first compound 1 µM
[11] = second compound 0.1 µM, first compound 3.16 µM
[12] = second compound 0.1 µM, first compound 10 µM
[13] = second compound 0.316 µM, first compound 0.0316 µM
[14] = second compound 0.316 µM, first compound 0.1 µM
[15] = second compound 0.316 µM, first compound 0.316 µM
[16] = second compound 0.316 µM, first compound 1 µM
[17] = second compound 0.316 µM, first compound 3.16 µM
[18] = second compound 0.316 µM, first compound 10 µM
[19] = second compound 1 µM, first compound 0.0316 µM
[20] = second compound 1 µM, first compound 0.1 µM
[21] = second compound 1 µM, first compound 0.316 µM
[22] = second compound 1 µM, first compound 1 µM
[23] = second compound 1 µM, first compound 3.16 µM
[24] = second compound 1 µM, first compound 10 µM
[25] = second compound 3.16 µM, first compound 0.0316 µM
[26] = second compound 3.16 µM, first compound 0.1 µM
[27] = second compound 3.16 µM, first compound 0.316 µM
[28] = second compound 3.16 µM, first compound 1 µM
[29] = second compound 3.16 µM, first compound 3.16 µM
[30] = second compound 3.16 µM, first compound 10 µM
[31] = second compound 10 µM, first compound 0.0316 µM
[32] = second compound 10 µM, first compound 0.1 µM
[33] = second compound 10 µM, first compound 0.316 µM
[34] = second compound 10 µM, first compound 1 µM
[35] = second compound 10 µM, first compound 3.16 µM
[36] = second compound 10 µM, first compound 10 µM
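Note: spheroids exposed to compounds for one week before readout.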
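Throughout, for viability, T/C: percent viability relative to DMSO vehicle wells taken as 100%.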

For `C#Cc1c(F)ccc2cc(O)cc(-c3ncc4c(N5CC6CCC(C5)N6)nc(OCC56CCCN5CC(F)C6)nc4c3F)c12` (stereo not drawn) + Nc1ccc(C#CCN(C(=O)Cc2ncc(C(F)(F)F)cc2C(F)(F)F)c2ccc(F)cc2)nn1, the IC50 (second compound 0.0316 µM) was 7.31 µM, the IC50 (second compound 0.1 µM) was 4.11 µM and the IC50 (second compound 0.316 µM) was 3.43 µM. The IC50 (second compound 1 µM) was 6.65 µM, the IC50 (second compound 3.16 µM) was 6.47 µM and the IC50 (second compound 10 µM) was 2.49 µM. The viability, T/C [1] was 105%, the viability, T/C [2] was 96.2% and the viability, T/C [3] was 98.5%. It also gave a viability, T/C [4] of 88.6%, a viability, T/C [5] of 62.5% and a viability, T/C [6] of 45.3%. The viability, T/C [7] was 97.1%, the viability, T/C [8] was 95.9% and the viability, T/C [9] was 90.4%. For the same compound, the viability, T/C [10] was 75.3%, the viability, T/C [11] was 56.9% and the viability, T/C [12] was 29.2%. For the same compound, the viability, T/C [13] was 111%, the viability, T/C [14] was 112% and the viability, T/C [15] was 75.2%. The viability, T/C [16] was 63.3%, the viability, T/C [17] was 58.6% and the viability, T/C [18] was 39%. It also gave a viability, T/C [19] of 103%, a viability, T/C [20] of 96.2% and a viability, T/C [21] of 91.3%. For the same compound, the viability, T/C [22] was 81.9%, the viability, T/C [23] was 53.7% and the viability, T/C [24] was 47.9%. The viability, T/C [25] was 84.7%, the viability, T/C [26] was 89.2% and the viability, T/C [27] was 99.5%. For the same compound, the viability, T/C [28] was 68.8%, the viability, T/C [29] was 68.1% and the viability, T/C [30] was 40.7%. For the same compound, the viability, T/C [31] was 92.9%, the viability, T/C [32] was 86.2% and the viability, T/C [33] was 74.6%. It also gave a viability, T/C [34] of 57.1%, a viability, T/C [35] of 50.6% and a viability, T/C [36] of 33.7%.

With `C=CC(=O)N1CCN(c2nc(=O)n(-c3c(C)ccnc3C(C)C)c3nc(-c4c(O)cccc4F)c(F)cc23)C(C)C1` (stereo not drawn) + Nc1ccc(C#CCN(C(=O)Cc2ncc(C(F)(F)F)cc2C(F)(F)F)c2ccc(F)cc2)nn1 the IC50 (second compound 0.0316 µM) was over 10 µM, the IC50 (second compound 0.1 µM) was over 10 µM and the IC50 (second compound 0.316 µM) was over 10 µM. The IC50 (second compound 1 µM) was over 10 µM, the IC50 (second compound 3.16 µM) was over 10 µM and the IC50 (second compound 10 µM) was over 10 µM. It also gave a viability, T/C [1] of 115%, a viability, T/C [2] of 99.3% and a viability, T/C [3] of 96.9%. The viability, T/C [4] was 99.6%, the viability, T/C [5] was 89.2% and the viability, T/C [6] was 66.8%. For the same compound, the viability, T/C [7] was 103%, the viability, T/C [8] was 101% and the viability, T/C [9] was 98.3%. The viability, T/C [10] was 90.6%, the viability, T/C [11] was 85.5% and the viability, T/C [12] was 63.5%. The viability, T/C [13] was 95.2%, the viability, T/C [14] was 96.7% and the viability, T/C [15] was 95.2%. It also gave a viability, T/C [16] of 91%, a viability, T/C [17] of 78.8% and a viability, T/C [18] of 62.2%. The viability, T/C [19] was 96.3%, the viability, T/C [20] was 95.2% and the viability, T/C [21] was 96.6%. It also gave a viability, T/C [22] of 94.6%, a viability, T/C [23] of 84.4% and a viability, T/C [24] of 67.3%. It also gave a viability, T/C [25] of 92.6%, a viability, T/C [26] of 89.2% and a viability, T/C [27] of 97.7%. For the same compound, the viability, T/C [28] was 93.8%, the viability, T/C [29] was 85% and the viability, T/C [30] was 67%. For the same compound, the viability, T/C [31] was 88.2%, the viability, T/C [32] was 94.4% and the viability, T/C [33] was 95.2%. It also gave a viability, T/C [34] of 82.9%, a viability, T/C [35] of 87.7% and a viability, T/C [36] of 65.4%.

`CC(C)n1c(=O)n(C)c2cnc3cc(F)c(-c4ccc(OCCCN5CCCCC5)nc4)cc3c21` + Nc1ccc(C#CCN(C(=O)Cc2ncc(C(F)(F)F)cc2C(F)(F)F)c2ccc(F)cc2)nn1 showed an IC50 (second compound 0.0316 µM) of over 10 µM, an IC50 (second compound 0.1 µM) of over 10 µM and an IC50 (second compound 0.316 µM) of over 10 µM. It also gave an IC50 (second compound 1 µM) of over 10 µM, an IC50 (second compound 3.16 µM) of over 10 µM and an IC50 (second compound 10 µM) of over 10 µM. For the same compound, the viability, T/C [1] was 95%, the viability, T/C [2] was 92.2% and the viability, T/C [3] was 103%. It also gave a viability, T/C [4] of 101%, a viability, T/C [5] of 111% and a viability, T/C [6] of 103%. It also gave a viability, T/C [7] of 93.2%, a viability, T/C [8] of 110% and a viability, T/C [9] of 110%. It also gave a viability, T/C [10] of 89.4%, a viability, T/C [11] of 103% and a viability, T/C [12] of 96.4%. The viability, T/C [13] was 96.8%, the viability, T/C [14] was 97.5% and the viability, T/C [15] was 99.5%. The viability, T/C [16] was 97.1%, the viability, T/C [17] was 97.7% and the viability, T/C [18] was 99.2%. It also gave a viability, T/C [19] of 107%, a viability, T/C [20] of 99.8% and a viability, T/C [21] of 83.1%. It also gave a viability, T/C [22] of 104%, a viability, T/C [23] of 97.4% and a viability, T/C [24] of 86.8%. For the same compound, the viability, T/C [25] was 112%, the viability, T/C [26] was 97.8% and the viability, T/C [27] was 84.7%. For the same compound, the viability, T/C [28] was 90.6%, the viability, T/C [29] was 117% and the viability, T/C [30] was 96.2%. The viability, T/C [31] was 99.5%, the viability, T/C [32] was 79.3% and the viability, T/C [33] was 103%. For the same compound, the viability, T/C [34] was 103%, the viability, T/C [35] was 76.9% and the viability, T/C [36] was 97.5%.

For `CC1COCCN1c1cc(-c2ccnn2C)c2ccnc(-c3ccn[nH]3)c2n1` (stereo not drawn) + Nc1ccc(C#CCN(C(=O)Cc2ncc(C(F)(F)F)cc2C(F)(F)F)c2ccc(F)cc2)nn1, the IC50 (second compound 0.0316 µM) was 0.155 µM, the IC50 (second compound 0.1 µM) was 0.165 µM and the IC50 (second compound 0.316 µM) was 0.19 µM. It also gave an IC50 (second compound 1 µM) of 0.115 µM, an IC50 (second compound 3.16 µM) of 0.192 µM and an IC50 (second compound 10 µM) of 0.154 µM. For the same compound, the viability, T/C [1] was 86%, the viability, T/C [2] was 56.8% and the viability, T/C [3] was 38.9%. The viability, T/C [4] was 31.7%, the viability, T/C [5] was 25.9% and the viability, T/C [6] was 27.4%. It also gave a viability, T/C [7] of 93.8%, a viability, T/C [8] of 60.6% and a viability, T/C [9] of 34.7%. For the same compound, the viability, T/C [10] was 29.8%, the viability, T/C [11] was 24.5% and the viability, T/C [12] was 19.4%. For the same compound, the viability, T/C [13] was 102%, the viability, T/C [14] was 67.4% and the viability, T/C [15] was 35.2%. It also gave a viability, T/C [16] of 26.8%, a viability, T/C [17] of 22.4% and a viability, T/C [18] of 18.9%. The viability, T/C [19] was 101%, the viability, T/C [20] was 52.9% and the viability, T/C [21] was 29%. For the same compound, the viability, T/C [22] was 26.8%, the viability, T/C [23] was 21.6% and the viability, T/C [24] was 23.1%. For the same compound, the viability, T/C [25] was 96.7%, the viability, T/C [26] was 59.5% and the viability, T/C [27] was 45.8%. The viability, T/C [28] was 24.8%, the viability, T/C [29] was 23.6% and the viability, T/C [30] was 18.7%. For the same compound, the viability, T/C [31] was 104%, the viability, T/C [32] was 56.4% and the viability, T/C [33] was 40.1%. For the same compound, the viability, T/C [34] was 25.1%, the viability, T/C [35] was 20.1% and the viability, T/C [36] was 22.2%.
